US20150051295A1, “USE OF PROPANOL AND PROPENOL DERIVATIVES AS ANTIOXIDANTS” (MERCK PATENT GmbH, priority 2011, published 2015)

Test: Determination of the reducing (=antioxidative) property: TLC plate chromatographed, then sprayed with potassium permanganate solution
Details: substance in MTB ether on TLC silica gel 60F254 plate, heptane/ethyl acetate 2/1, then sprayed with freshly prepared KMnO4/NaOH solution
Experimental: Determination of the reducing (=antioxidative) property of 3-(4-tert-butyl phenyl)-1-(4-methoxyphenyl)prop-2-en-1-ol (substance 1a) and of 3-(4-tert-butylphenyl)-1-(4-methoxyphenyl)propan-1-ol (substance 2a): a little substance is dissolved in MTB ether and applied to a TLC plate (TLC silica gel 60F254 plate). The plate is chromatographed with heptane/ethyl acetate 2/1. […] The Rf values are at 0.61 (substance 2a) and 0.35 (substance 1a).

Structure (SMILES) | reducing (=antioxidative) property: decolourisation of potassium permanganate spray solution at substance spots
COc1ccc(C(O)/C=C/c2ccc(C(C)(C)C)cc2)cc1 (centres unmarked) [substance 1a, 3-(4-tert-butylphenyl)-1-(4-methoxyphenyl)prop-2-en-1-ol] | decolorises at the substance spots
COc1ccc(C(O)CCc2ccc(C(C)(C)C)cc2)cc1 (centres unmarked) [substance 2a, 3-(4-tert-butylphenyl)-1-(4-methoxyphenyl)propan-1-ol] | decolorises at the substance spots
